Assay results from ChEMBL document CHEMBL1201862, “PubChem BioAssay data set” (2004).
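Values below derive from 48-hour exposures of cells grown in 96-well plates, with endpoints linearly interpolated between the two concentrations bracketing the appropriate inhibition level. GI50 is the concentration that inhibits growth by half.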 The source made the active and inactive calls. Cut-off read from the data, not from the text of the source: active = GI50 up to about 1.1 µM and inactive = higher.

Tests used:
Test in all cases: DTP human tumour cell line panel, 48 h
786-0 = system: 786-0
ACHN = system: ACHN
BT-549 = system: BT-549
EKVX = system: EKVX
HCC 2998 = system: HCC 2998
HOP-62 = system: HOP-62
HOP-92 = system: HOP-92
M14 = system: M14
MDA-N = system: MDA-N
Malme-3M = system: Malme-3M
NCI-H226 = system: NCI-H226
OVCAR-4 = system: OVCAR-4
OVCAR-5 = system: OVCAR-5
PC-3 = system: PC-3
RPMI-8226 = system: RPMI-8226
SF-268 = system: SF-268
SNB-19 = system: SNB-19
SNB-75 = system: SNB-75
SR = system: SR
MDA-MB-435 = system: MDA-MB-435

Measured: GI50

COC(=O)c1c(C)cccc1/C=C1\Cc2ccc(C)c(C)c2C1=O
inactive: 786-0 > 100 µM | ACHN > 100 µM | BT-549 > 100 µM | EKVX > 100 µM | HCC 2998 > 100 µM | HOP-62 41.7 µM | HOP-92 74.3 µM | M14 52.4 µM | MDA-N > 100 µM | Malme-3M > 100 µM | NCI-H226 > 100 µM | OVCAR-4 22.3 µM | OVCAR-5 > 100 µM | PC-3 > 100 µM | RPMI-8226 56.2 µM | SF-268 67.5 µM | SNB-19 52.5 µM | SNB-75 40.6 µM | SR 8.39 µM

COc1ccc(O)c2c(=O)ccccc12
inactive: 786-0 > 100 µM | ACHN > 100 µM | EKVX > 100 µM | HCC 2998 > 100 µM | HOP-62 > 100 µM | HOP-92 > 100 µM | M14 > 100 µM | Malme-3M > 100 µM | NCI-H226 46.2 µM | OVCAR-4 > 100 µM | OVCAR-5 > 100 µM | RPMI-8226 > 100 µM | SF-268 > 100 µM | SNB-19 > 100 µM | SNB-75 > 100 µM | SR > 100 µM

Cc1ccc(S(=O)(=O)Nc2ccccc2C(=O)c2ccc(C)c(C)c2)cc1
inactive: 786-0 > 100 µM | ACHN 55.2 µM | BT-549 > 100 µM | EKVX > 100 µM | HOP-62 > 100 µM | M14 > 100 µM | MDA-MB-435 41.9 µM | MDA-N 74.3 µM | Malme-3M 59 µM | NCI-H226 > 100 µM | OVCAR-4 > 100 µM | OVCAR-5 > 100 µM | PC-3 > 100 µM | RPMI-8226 42.9 µM | SF-268 > 100 µM | SNB-19 > 100 µM | SNB-75 > 100 µM

CC(C)OP(=O)(OC(C)C)/C(Cl)=N/Nc1ccc([N+](=O)[O-])cc1
inactive: 786-0 > 100 µM | ACHN > 100 µM | EKVX > 100 µM | HCC 2998 > 100 µM | HOP-62 > 100 µM | HOP-92 44.9 µM | M14 > 100 µM | Malme-3M > 100 µM | OVCAR-4 > 100 µM | OVCAR-5 > 100 µM | RPMI-8226 > 100 µM | SF-268 > 100 µM | SNB-19 > 100 µM | SNB-75 > 100 µM | SR 92.3 µM
active: NCI-H226 0.778 µM

COc1ccc(C=O)cc1Oc1ccc(C[C@H]2c3c(cc(OC)c4c3Oc3cc5c(cc3O4)CCN(C)C5=O)CCN2C)cc1
inactive: 786-0 8.61 µM | ACHN 8.43 µM | EKVX 9.4 µM | HCC 2998 8.28 µM | HOP-62 8.32 µM | HOP-92 7.14 µM | M14 8.65 µM | MDA-MB-435 9.73 µM | MDA-N 8.67 µM | Malme-3M 10.4 µM | NCI-H226 8.59 µM | OVCAR-4 7.93 µM | OVCAR-5 12.1 µM | PC-3 8.75 µM | RPMI-8226 5.04 µM | SF-268 10.3 µM | SNB-19 12 µM | SNB-75 7.29 µM | SR 9.38 µM

C=C(CCC/C(C)=C/C=C/[C@]1(C)CCCc2ccoc21)CC(=O)O
inactive: 786-0 > 100 µM | ACHN > 100 µM | BT-549 79.1 µM | EKVX > 100 µM | HCC 2998 > 100 µM | HOP-62 > 100 µM | HOP-92 > 100 µM | M14 > 100 µM | MDA-MB-435 > 100 µM | Malme-3M > 100 µM | NCI-H226 > 100 µM | OVCAR-4 > 100 µM | OVCAR-5 > 100 µM | PC-3 90.6 µM | RPMI-8226 54.2 µM | SF-268 > 100 µM | SNB-19 > 100 µM | SNB-75 > 100 µM | SR 39.3 µM

OC1CCC(C2C3CCCCC3C3CCCCC3C2C2CCC(O)CC2)CC1 (stereo not drawn)
inactive: 786-0 4.16 µM | ACHN 2.98 µM | BT-549 3.89 µM | EKVX 9.89 µM | HOP-62 5.04 µM | HOP-92 8.05 µM | M14 5.19 µM | MDA-MB-435 4.19 µM | Malme-3M 15.8 µM | NCI-H226 6 µM | OVCAR-4 4.04 µM | OVCAR-5 7.59 µM | PC-3 5.31 µM | RPMI-8226 5.53 µM | SF-268 2.99 µM | SNB-19 6.44 µM | SNB-75 5.38 µM | SR 4.16 µM

CS/C(=N\c1nccs1)NC(=O)c1cccc(Cl)c1
inactive: 786-0 > 100 µM | ACHN > 100 µM | EKVX 19 µM | HCC 2998 > 100 µM | HOP-62 > 100 µM | HOP-92 71.3 µM | M14 > 100 µM | Malme-3M > 100 µM | NCI-H226 > 100 µM | OVCAR-4 68.1 µM | OVCAR-5 > 100 µM | RPMI-8226 97.7 µM | SF-268 > 100 µM | SNB-19 > 100 µM | SNB-75 49.5 µM | SR 24.6 µM

Cn1nc(Cc2ccc(Cl)cc2)n(N)c1=O
inactive: 786-0 > 100 µM | ACHN > 100 µM | BT-549 > 100 µM | HCC 2998 > 100 µM | MDA-MB-435 > 100 µM | MDA-N > 100 µM | Malme-3M > 100 µM | NCI-H226 > 100 µM | OVCAR-5 > 100 µM | PC-3 > 100 µM | RPMI-8226 > 100 µM | SF-268 > 100 µM | SNB-19 > 100 µM | SNB-75 > 100 µM

COc1cc2c(cc1OC)C1c3ccccc3CCN1CC2 (stereo not drawn)
inactive: 786-0 > 100 µM | ACHN > 100 µM | EKVX > 100 µM | HCC 2998 43.6 µM | HOP-62 70.8 µM | HOP-92 59.3 µM | M14 45 µM | MDA-MB-435 37.2 µM | MDA-N 41.1 µM | Malme-3M > 100 µM | NCI-H226 41.2 µM | OVCAR-4 > 100 µM | OVCAR-5 > 100 µM | PC-3 > 100 µM | SF-268 > 100 µM | SNB-19 > 100 µM | SNB-75 44.6 µM | SR > 100 µM

OC1CCN(c2c3ccccc3nc3ccccc23)CC1
inactive: 786-0 4.99 µM | ACHN 8.71 µM | BT-549 17.7 µM | EKVX 55.2 µM | HOP-62 34.4 µM | HOP-92 6.9 µM | M14 6.92 µM | MDA-MB-435 19.7 µM | Malme-3M 9.82 µM | NCI-H226 34.2 µM | OVCAR-4 17.6 µM | OVCAR-5 51.8 µM | PC-3 25.5 µM | RPMI-8226 4.82 µM | SF-268 17.2 µM | SNB-19 27.9 µM | SNB-75 23.8 µM | SR 2.77 µM

CC[C@@H](O)C[C@H]1CCC[C@@]2(C[C@@H]3OC(=O)/C=C/[C@@](C)(O)[C@@H](O)[C@H](C)[C@@H](O)[C@H](OC4CCC(N(C)C)C(C)O4)[C@@H](O)[C@](C)(O)CCCCC/C=C/[C@@H]4CC(C)(C)O[C@@]4(O)C[C@H](O2)[C@H]3C)O1 (stereo partly drawn)
inactive: 786-0 11.3 µM | BT-549 12.6 µM | HCC 2998 2.4 µM | HOP-62 13.4 µM | HOP-92 13.7 µM | M14 1.85 µM | MDA-N 2.96 µM | Malme-3M 1.56 µM | OVCAR-4 5.2 µM | OVCAR-5 14.8 µM | SF-268 15.7 µM
active: ACHN < 0.01 µM | EKVX < 0.01 µM | MDA-MB-435 0.927 µM | RPMI-8226 < 0.01 µM | SR 1.06 µM

CCOC(=O)N1C=CC(=C2C(=C3C=CN(C(=O)OCC)C=C3)C(=C3C=CN(C(=O)OCC)C=C3)C2=C2C=CN(C(=O)OCC)C=C2)C=C1
active: HOP-92 0.0637 µM
inactive: 786-0 28.6 µM | ACHN 2.98 µM | BT-549 40.5 µM | EKVX 48.5 µM | HOP-62 25.9 µM | M14 28.3 µM | MDA-MB-435 22.2 µM | Malme-3M 13.5 µM | NCI-H226 22.3 µM | OVCAR-4 38 µM | OVCAR-5 36.8 µM | PC-3 17.1 µM | SF-268 31.5 µM | SNB-19 64.6 µM | SNB-75 47.1 µM | SR 6.24 µM

COc1ccc(N(C(=O)NCCO)c2ccccc2)cc1
inactive: 786-0 > 100 µM | ACHN > 100 µM | EKVX > 100 µM | HCC 2998 > 100 µM | HOP-62 > 100 µM | HOP-92 > 100 µM | M14 > 100 µM | MDA-MB-435 > 100 µM | MDA-N > 100 µM | Malme-3M > 100 µM | NCI-H226 > 100 µM | OVCAR-4 > 100 µM | OVCAR-5 > 100 µM | PC-3 > 100 µM | RPMI-8226 > 100 µM | SF-268 > 100 µM | SNB-19 > 100 µM | SNB-75 > 100 µM | SR > 100 µM

CC(=O)Nc1ccc(C(=O)NN2C(=O)CSC2c2ccc([N+](=O)[O-])cc2)cc1 (stereo not drawn)
inactive: 786-0 > 100 µM | ACHN > 100 µM | EKVX > 100 µM | HCC 2998 > 100 µM | HOP-62 > 100 µM | HOP-92 > 100 µM | M14 > 100 µM | MDA-MB-435 > 100 µM | MDA-N > 100 µM | NCI-H226 > 100 µM | OVCAR-4 > 100 µM | OVCAR-5 > 100 µM | RPMI-8226 > 100 µM | SF-268 79.8 µM | SNB-19 > 100 µM | SNB-75 > 100 µM

COc1cc(O)c2c(c1)O[C@@H]1OCC[C@H]21
inactive: 786-0 > 100 µM | ACHN > 100 µM | EKVX > 100 µM | HCC 2998 > 100 µM | HOP-62 > 100 µM | HOP-92 > 100 µM | M14 > 100 µM | Malme-3M > 100 µM | NCI-H226 > 100 µM | OVCAR-4 > 100 µM | OVCAR-5 > 100 µM | RPMI-8226 > 100 µM | SNB-19 > 100 µM | SNB-75 > 100 µM | SR > 100 µM
